# Data published in patent US12691070B2, “Cationic lipids and preparation method thereof” (RiboX Therapeutics HK Limited, priority 2023, dated 2026).
# What was measured:
# [1] = LNP size and polydispersity index (PDI) by dynamic light scattering; assay type: physicochemical; conditions: for Size: in nm (unit assumed)
# How it was run: (§1)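 Ribogreen fluorescence with and without Triton X-100 gave encapsulation as 100% − (intact/lysed) signal; DLS size, PDI and zeta potential measured on a Zetasizer. Particles: 50:10:38.5:1.5 lipid mix, luciferase circRNA or mRNA, lipid:nucleotide 15 or 6, microfluidic assembly at pH 4.5, PBS-dialyzed.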
# [2] = LNP zeta potential (Zetasizer); assay type: physicochemical
# How it was run: as §1
# [3] = RNA encapsulation efficacy by Quant-IT Ribogreen kit; assay type: physicochemical; conditions: for Encapsulation Efficiency %: LNP with cirRNA (SEQ ID NO: 1); for Encapsulation Efficiency: LNP with mRNA (SEQ ID NO: 2)
# How it was run: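 Dynamic light scattering and zeta potential measurements were run on PBS-dialyzed LNPs, which had been formed by microfluidic mixing at 12 ml/min with final lipid at 1.5 mM to 6 mM. RNA content and percent encapsulation were determined by Ribogreen with and without Triton X-100.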
# Hep G2 cells [4] = assay: In vitro expression of firefly-luciferase, Hep G2; assay type: cell-based
# How it was run: (§2)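 First, cells were dosed with RNA lipid nanoparticles encoding firefly luciferase (100 ng/mL). Second, at 72 h they were washed and lysed. Third, lysate luciferase activity was read with a luminometer.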
# RAW 264.7 cells [5] = assay: In vitro expression of firefly-luciferase, RAW 264.7; assay type: cell-based
# How it was run: as §2
# Hep G2 cells [6] = assay: In vitro toxicity (CellTiter-Glo cell viability), Hep G2; assay type: cell-based;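 further: percent of untreated cells luminescence signal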
# How it was run: (§3)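 Viability after a 72 h incubation with 1 μg/mL RNA-LNP formulations was assessed luminometrically using CellTiter-Glo.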
# RAW 264.7 cells [7] = assay: In vitro toxicity (CellTiter-Glo cell viability), RAW 264.7; assay type: cell-based;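 further: percent of untreated cells luminescence signal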
# How it was run: as §3
# BALB/C mice [8] = assay: In vivo expression, whole-body luminescence (IVIS)
# Experimental: 6-8 week old, female BALB/C mice were injected with 0.05 mg*kg-1 of RNA-LNPs encoding for firefly-luciferase by intravenous injection. At 6 hours post injection, animals were intraperitoneally injected with 15 mg/ml of Luciferin substrate and whole-body luminescence was determined by a bioluminescent in vivo imaging system (IVIS).
# MCP-I = MCP-I cytokine elevation in serum; assay type: in vivo; conditions: cirRNA (SEQ ID NO: 1) LNPs, mice
# Experimental: 6-8 week old, female BALB/C mice were injected with 0.5 mg*kg-1 of RNA LNPs by intravenous injection. At 2 and 24 hours post injection, animals were bled and sera concentrations of MCP-I were determined by an immunoassay (Luminex).
# [9] = test system: Alanine Aminotransferase (ALT); assay: Liver enzyme elevation in serum, ALT; assay type: in vivo; conditions: cirRNA (SEQ ID NO: 1) LNPs, BALB/C mice, intravenous 0.5 MPK
# Experimental: (§4) 6-8 week old, female BALB/C mice were injected with 0.5 mg*kg-1 of RNA LNPs by intravenous injection. At 2 and 24 hours post injection, animals were bled and sera concentrations of Alanine Aminotransferase (ALT) and Aspartate Aminotransferase (AST) were determined by a blood chemistry analyzer.
# [10] = test system: Aspartate Aminotransferase (AST); assay: Liver enzyme elevation in serum, AST; assay type: in vivo; conditions: cirRNA (SEQ ID NO: 1) LNPs, BALB/C mice, intravenous 0.5 MPK
# Experimental: as §4
# BALB/C mice [11] = assay: Local tolerance determination by footpad injection; assay type: in vivo; conditions: cirRNA (SEQ ID NO: 1) LNP, 0.175 mg*kg-1 subcutaneous into the footpad, 24 hours post minus prior
# Experimental: 6-8 week old, female BALB/C mice were injected with 0.175 mg*kg-1 RNA LNPs by subcutaneous injection into the footpad. Prior to, and 24 hours post injections, injected footpad thickness was determined by a caliper.
# [12] = cirRNA (SEQ ID NO: 1) LNPs, firefly-luciferase luminescence, Hep G2 cells
# [13] = mRNA (SEQ ID NO: 2) LNP, 100 ng/mL, 72 hours post transfection, luciferase activity
# [14] = cirRNA (SEQ ID NO: 1) LNPs, firefly-luciferase luminescence, RAW 264.7 cells
# [15] = cirRNA (SEQ ID NO: 1) LNPs, Hep G2 cells
# [16] = mRNA (SEQ ID NO: 2) LNP, 1 μg/mL, 72 hours post transfection
# [17] = cirRNA (SEQ ID NO: 1) LNPs, RAW 264.7 cells
# [18] = cirRNA (SEQ ID NO: 1) LNPs, BALB/C mice
# [19] = mRNA (SEQ ID NO: 2) LNP, 0.05 mg*kg-1 intravenous, 6 hours post injection
Structure (SMILES),PDI ([1]; LNP with cirRNA (SEQ ID NO: 1)),Size ([1]; LNP with cirRNA (SEQ ID NO: 1)),PDI ([1]; LNP with mRNA (SEQ ID NO: 2)),Size ([1]; LNP with mRNA (SEQ ID NO: 2)),Zeta (mV) ([2]; LNP with cirRNA (SEQ ID NO: 1)),Zeta (mV) ([2]; LNP with mRNA (SEQ ID NO: 2)),Encapsulation Efficiency % [3] [%],Encapsulation Efficiency [3] [%],In vitro Expression HepG2 (Hep G2 cells [4]; [12]),In vitro Expression HepG2 (Hep G2 cells [4]; [13]),In vitro Expression RAW (RAW 264.7 cells [5]; [14]),In vitro Expression RAW (RAW 264.7 cells [5]; [13]),In vitro Viability HepG2 (Hep G2 cells [6]; [15]) [%],In vitro Viability HepG2 (Hep G2 cells [6]; [16]) [%],In vitro Viability RAW (RAW 264.7 cells [7]; [17]) [%],In vitro Viability RAW (RAW 264.7 cells [7]; [16]) [%],In vivo Expression (Whole Body) (BALB/C mice [8]; [18]),In vivo Expression (Whole Body) (BALB/C mice [8]; [19]),MCP-I in Sera 2 hours After 0.5 MPK Injection (MCP-I) [pg/mL],MCP-I in Sera 24 hours After 0.5 MPK Injection (MCP-I) [pg/mL],other results
CCCCC/C=C\C/C=C\CCCCCCCCN(CCCCCCCC(=O)OC(CCCCCCCC)CCCCCCCC)CCCOC(=O)NCc1ncc[nH]1 [Lipid 271],0.2068,98.73,0.1219,97.34,0.345,0.8825,93,94.51,5.51E+06,3.69E+06,1.59E+06,6.06E+06,91,117,121,85,8.99E+07,8.51E+08,1986.67,522.62,"ALT in Sera (IU/L) 2 hours After 0.5 MPK Injection [9]: 128.33 IU/L; ALT in Sera (IU/L) 24 hours After 0.5 MPK Injection [9]: 114.67 IU/L; AST in Sera (IU/L) 2 hours After 0.5 MPK Injection [10]: 200.67 IU/L; AST in Sera (IU/L) 24 hours After 0.5 MPK Injection [10]: 231.33 IU/L; Footpad Thickness (24 h−0 h, mm) (BALB/C mice [11]): 0.40 mm"
CCCCCCCCC(CCCCCCCC)OC(=O)CCCCCCCN(CCCCCCCCOC(=O)C(CCCCCC)CCCCCCCC)CCCOC(=O)NCCN1CCCCC1 (stereo not drawn) [Lipid 351],0.1705,99.16,0.3512,178.8,−0.1951,−4.142,95,66.39,1.87E+06,1.00E+07,6.44E+05,3.41E+06,96,87,98,94,1.35E+08,1.71E+08,3172.67,1133.74,"ALT in Sera (IU/L) 2 hours After 0.5 MPK Injection [9]: 74.33 IU/L; ALT in Sera (IU/L) 24 hours After 0.5 MPK Injection [9]: 149.33 IU/L; AST in Sera (IU/L) 2 hours After 0.5 MPK Injection [10]: 232.67 IU/L; AST in Sera (IU/L) 24 hours After 0.5 MPK Injection [10]: 389.33 IU/L; Footpad Thickness (24 h−0 h, mm) (BALB/C mice [11]): 0.68 mm"
CCCCCCCCC(CCCCCC)C(=O)OCCCCCCCCN(CCCCCCCCOC(=O)C(CCCCCC)CCCCCCCC)CCCOC(=O)NCc1ncc[nH]1 (stereo not drawn) [Lipid 375],0.2011,92.54,0.008186,75.13,−1.253,−4.713,89,88.53,1.10E+06,4.36E+05,7.06E+05,2.13E+05,100,100,90,78,3.46E+08,8.41E+08,2740.67,396.29,"ALT in Sera (IU/L) 2 hours After 0.5 MPK Injection [9]: 174.67 IU/L; ALT in Sera (IU/L) 24 hours After 0.5 MPK Injection [9]: 120.33 IU/L; AST in Sera (IU/L) 2 hours After 0.5 MPK Injection [10]: 292.00 IU/L; AST in Sera (IU/L) 24 hours After 0.5 MPK Injection [10]: 251.67 IU/L; Footpad Thickness (24 h−0 h, mm) (BALB/C mice [11]): 0.27 mm"
